Reference: ChEMBL document CHEMBL3259687, “Synthesis and identification of chiral aminomethylpiperidine carboxamides as inhibitor of collagen induced platelet activation” (Eur J Med Chem, 2014)
Calls of active or inactive are those of the source. No cut-off for these calls is given here.

Tests used:
[1] = system: Platelet; test: Antiplatelet activity in human platelet-rich plasma assessed as inhibition of ristocetin-induced platelet aggregation treated for 5 mins prior to ristocetin challenge for 5 mins by turbidimetric method; assay type: functional, cell-free
[2] = system: Platelet; test: Antiplatelet activity in human platelet-rich plasma assessed as inhibition of TRAP-induced platelet aggregation treated for 5 mins prior to TRAP challenge for 5 mins by turbidimetric method; assay type: functional, cell-free
[3] = system: Mus musculus; test: Antithrombotic activity in mouse assessed as protection against collagen-epinephrine-induced pulmonary thromboembolism at 30 uM/kg, po administered 60 mins prior to thrombotic challenge measured for up to 12 hrs post-drug dose; assay type: functional, organism-based
[4] = Antiplatelet activity in human platelet-rich plasma assessed as inhibition of collagen-induced platelet aggregation at 10 uM treated for 5 mins prior to collagen challenge for 5 mins by turbidimetric method; assay type: functional
[5] = system: Mus musculus; test: Antithrombotic activity in mouse assessed as protection against collagen-epinephrine-induced pulmonary thromboembolism at 30 uM/kg, po administered 60 mins prior to thrombotic challenge; assay type: functional
[6] = (§1) Antiplatelet activity in human platelet-rich plasma assessed as inhibition of collagen-induced platelet aggregation treated for 5 mins prior to collagen challenge for 5 mins by turbidimetric method; assay type: functional, cell-free; conditions: for IC50: Homo sapiens, Platelet, Plasma
[7] = system: Platelet; test: Antiplatelet activity in human platelet-rich plasma assessed as inhibition of ADP-induced platelet aggregation treated for 5 mins prior to ADP challenge for 5 mins by turbidimetric method; assay type: functional, cell-free
[8] = Antiplatelet activity in human platelet-rich plasma assessed as inhibition of arachidonic acid-induced platelet aggregation treated for 5 mins prior to arachidonic acid challenge for 5 mins by turbidimetric method; assay type: functional, cell-free; conditions: for IC50: Homo sapiens, Platelet, Plasma
[9] = system: Platelet; test: as §1; assay type: functional, cell-free
[10] = system: Mus musculus; test: Prolongation of bleeding time in mouse at 30 uM/kg, po administered as single dose by tail excision method; assay type: ADME, organism-based; conditions: in vivo
[11] = (§2) Antiplatelet activity in human platelet-rich plasma assessed as inhibition of U46619-induced platelet aggregation treated for 5 mins prior to U46619 challenge for 5 mins by turbidimetric method; assay type: functional, cell-free; conditions: for IC50: Homo sapiens, Platelet, Plasma
[12] = system: Platelet; test: as §2; assay type: functional, cell-free
[13] = system: Mus musculus; test: Antithrombotic activity in mouse assessed as protection against collagen-epinephrine-induced pulmonary thromboembolism at 170 uM/kg, po administered 60 mins prior to thrombotic challenge measured for up to 5 hrs post-drug dose; assay type: functional, organism-based
[14] = system: Mus musculus; test: Prolongation of bleeding time in mouse at 170 uM/kg, po administered as single dose by tail excision method relative to control; assay type: ADME, organism-based; conditions: in vivo
[15] = system: Mus musculus; test: Antithrombotic activity in mouse assessed as protection against collagen-epinephrine-induced pulmonary thromboembolism at 170 uM/kg, po administered 60 mins prior to thrombotic challenge; assay type: functional
[16] = system: Mus musculus; test: Prolongation of bleeding time in mouse at 30 uM/kg, po administered as single dose by tail excision method relative to control; assay type: ADME, organism-based; conditions: in vivo
[17] = system: Mus musculus; test: Antithrombotic activity in mouse assessed as protection against collagen-epinephrine-induced pulmonary thromboembolism at 30 uM/kg, po administered 60 mins prior to thrombotic challenge measured for up to 18 hrs post-drug dose; assay type: functional, organism-based
[18] = system: Mus musculus; test: Antithrombotic activity in mouse assessed as protection against collagen-epinephrine-induced pulmonary thromboembolism at 30 uM/kg, po administered 60 mins prior to thrombotic challenge measured at >18 hrs post-drug dose; assay type: functional, organism-based
[19] = Antiplatelet activity in human platelet-rich plasma assessed as inhibition of collagen-induced platelet aggregation at 30 uM treated for 5 mins prior to collagen challenge for 5 mins by turbidimetric method; assay type: functional
[20] = system: Mus musculus; test: Antithrombotic activity in mouse assessed as protection against collagen-epinephrine-induced pulmonary thromboembolism at 30 uM/kg, po administered 60 mins prior to thrombotic challenge measured for more than 24 hrs post-drug dose; assay type: functional, organism-based
[21] = system: Platelet; test: Antiplatelet activity in human platelet-rich plasma assessed as inhibition of CRP-XL-induced platelet aggregation up to 500 uM treated for 5 mins prior to CRP-XL challenge for 5 mins by turbidimetric method; assay type: functional, cell-free
[22] = system: Platelet; test: Antiplatelet activity in human platelet-rich plasma assessed as inhibition of convulxin-induced platelet aggregation treated for 5 mins prior to convulxin challenge for 5 mins by turbidimetric method; assay type: functional, cell-free

## Cc1ccc(CN2C(=O)CC[C@H]2C(=O)N2CCC[C@H](CNC(=O)OC(C)(C)C)C2)cc1
[1]
  inhibition: inactive
[2]
  inhibition: inactive
[3]
  Activity: Active
[4]
  inhibition at 10 µM: 30%
[5]
  Activity: 50%
[6]
  IC50: 37 µM
[7]
  inhibition: inactive

## Cc1ccc(CN2C(=O)SC[C@H]2C(=O)N2CCC[C@H](CNC(=O)OC(C)(C)C)C2)cc1
[1]
  inhibition: inactive
[2]
  inhibition: inactive
[8]
  inhibition (INH): 8%
  IC50: > 100 µM
[5]
  Activity: 50%
[6]
  inhibition (INH): 83%
  IC50: 6 µM
[9]
  inhibition: Dose-dependent effect
[7]
  inhibition: inactive
[10]
  Activity: 50%
[11]
  inhibition (INH): 64%
  IC50: 10.2 µM
[12]
  inhibition: Dose-dependent effect

## CC(=O)Oc1ccccc1C(=O)O [ASPIRIN]
[13]
  Activity: Active
[8]
  IC50: 5 µM
[14]
  fold change (FC): 2.2
[15]
  Activity: 40%

## Cc1ccc(CN2C(=O)SC[C@H]2C(=O)N2CCC[C@@H](CNC(=O)OC(C)(C)C)C2)cc1
[1]
  inhibition: inactive
[2]
  inhibition: inactive
[8]
  inhibition (INH): 15%
  IC50: > 100 µM
[5]
  Activity: 40%
[6]
  inhibition (INH): 81%
  IC50: 6.4 µM
[9]
  inhibition: Dose-dependent effect
[7]
  inhibition: inactive
[10]
  Activity: 43%
[11]
  inhibition (INH): 75%
  IC50: 6.4 µM
[12]
  inhibition: Dose-dependent effect

## Cc1ccc(CN2C(=O)CC[C@H]2C(=O)N2CCCC(CNC(=O)OC(C)(C)C)C2)cc1 (mixture of isomers)
[1]
  inhibition: inactive
[2]
  inhibition: inactive
[16]
  fold change (FC): 1.5
[5]
  Activity: 60%
[6]
  IC50: 16 µM
[17]
  Activity: Active
[7]
  inhibition: inactive
[10]
  Activity: 50%
[18]
  Activity: inactive
[19]
  inhibition at 30 µM: 77.3%

## Cc1ccc(CN2CSC[C@H]2C(=O)N2CCC[C@@H](CNC(=O)OC(C)(C)C)C2)cc1
[1]
  inhibition: inactive
[2]
  inhibition: inactive
[8]
  inhibition (INH): 25%
  IC50: > 100 µM
[5]
  Activity: 50%
[6]
  inhibition (INH): 74%
  IC50: 8 µM
[9]
  inhibition: Dose-dependent effect
[7]
  inhibition: inactive
[10]
  Activity: 50%
[11]
  inhibition (INH): 96%
  IC50: 4.7 µM
[12]
  inhibition: Dose-dependent effect

## Cc1ccc(CN2C(=O)CC[C@H]2C(=O)N2CCC[C@@H](CNC(=O)OC(C)(C)C)C2)cc1
[1]
  inhibition: inactive
[2]
  inhibition: inactive
[4]
  inhibition at 10 µM: 49%
[20]
  Activity: Active
[21]
  inhibition: Active
[5]
  Activity: 60%
[22]
  inhibition: inactive
[6]
  IC50: 6.6 µM
[7]
  inhibition: inactive
